Test results taken from patent US20250351832A1, “PHYTOCHEMICALS AS BIOPESTICIDES AND BIOSTIMULANTS” (KAY BEE BIO ORGANICS PVT. LTD., priority 2024, published 2025).
Read-outs that look alike come from different tables or passages of the source.

Legend:
Alternaria alternata [1] = test: In vitro poisoned food technique against fungus (Ex. 20); type: cell-based
Mite [2] = conditions: mite on okra plants, green house, dose 1 ml/gm/lit. spray; for % Mortality at 48 Hrs. / Total No. of dead insect at 48 Hrs.: 48 hrs after application; for % Corrected Mortality at 48 Hrs.: corrected for water control
tomato seedlings = test: Response of tomato plants, greenhouse growth (Ex. 30); type: in vivo; conditions: tomato seedlings, dose 1 ml/gm/lit; for Plant Height 5th Day / Stem Girth 5th Day / CCI 5th Day: 5th day after application; for Plant Height 10th Day / Stem Girth 10th Day / CCI 10th Day: 10th day after application; for Plant Height % Increase over pre on 10th Day / Stem Girth % Increase over pre on 10th Day / CCI % Increase over pre on 10th Day / Root Length (cm) 10th Day / Root Length % Increase over control: 10th day; for Root Length % Increase over control: vs water control
Aphid [3] = test: whole plant or invertebrate; conditions: 48 h
Spodoptera litura [4] = conditions: Spodoptera litura on castor leaves; dose 1 ml/gm/lit.; 10 insects/treatment; 72 hrs after application
[5] = cited from earlier work; for Phytotonic Effect: Table 13, effect on plants, descriptive
Spodoptera litura [6] = conditions: Spodoptera litura 3rd instar on cabbage plants, dose 1 ml/gm/lit. spray; for % Mortality at 72 Hrs.: 72 hrs after application; for % Corrected Mortality at 72 Hrs.: corrected for water control
Helicoverpa armigera [7] = conditions: Helicoverpa armigera 3rd instar on chickpea plants, dose 1 ml/gm/lit. spray; for % Mortality at 72 Hrs.: 72 hrs after application; for % Corrected Mortality at 72 Hrs.: corrected for water control
Alternaria alternata [8] = test: Alternaria leaf spot/blight on inoculated tomato plants (Ex. 28); type: in vivo; conditions: tomato plants, Alternaria alternata; after 7 days; dose 1 ml/gm/lit
Mealy Bug [9] = conditions: Mealy Bug on cotton leaves, dose 1 ml/gm/lit., 48 Hrs.; for Total No. of dead insect at 48 Hrs.: 10 insects/treatment, 4 replications; for % Corrected Mortality at 48 Hrs.: corrected for water control
Mealy Bug [10] = conditions: mealy bug on cotton plants, green house, dose 1 ml/gm/lit. spray; for % Mortality at 48 Hrs. / Total No. of dead insect at 48 Hrs.: 48 hrs after application; for % Corrected Mortality at 48 Hrs.: corrected for water control
Aphid [11] = conditions: Dose 1 ml/gm/lit.; for Total No. of dead insect at 48 Hrs.: 10 insects/treatment, 4 replications, cotton leaves
Thrips [12] = conditions: thrips on cotton plants, greenhouse, dose 1 ml/gm/lit. spray; for % Mortality at 48 Hrs. / Total No. of dead insect at 48 Hrs.: 48 hrs after application; for % Corrected Mortality at 48 Hrs.: corrected for water control
Spodoptera litura [13] = test: whole plant or invertebrate; conditions: 72 h
Thrips [14] = conditions: Thrips on cotton leaves; dose 1 ml/gm/lit.; 10 insects/treatment; 48 hrs after application
Mite [15] = conditions: Dose 1 ml/gm/lit.; for Total No. of dead insect at 48 Hrs.: 10 insects/treatment, 4 replications, okra leaves
chili seedlings = test: Response of chili plants, greenhouse growth (Ex. 31); type: in vivo; conditions: chili seedlings, dose 1 ml/gm/lit; for CCI 5th Day / Plant Height (cm) 5th Day: 5th day after application; for CCI 10th Day / Plant Height (cm) 10th Day: 10th day after application; for CCI % Increase over pre on 10th Day / Plant Height % Increase over pre on 10th Day / Root Lenght (cm) 10th Day / Stem Girth % Increase over pre on 10th Day / Root Lenght % Increase over control: 10th day; for Root Lenght % Increase over control: vs water control
Aphid [16] = conditions: Aphids on cotton plants, green house; dose 1 ml/gm/lit.; 10 insects/plant, 10 plants/treatment; 48 hrs
Thrips [17] = test: whole plant or invertebrate; conditions: in Gossypium hirsutum, 48 h
Helicoverpa armigera [18] = conditions: Helicoverpa armigera on okra fruits, dose 1 ml/gm/lit., 72 Hrs.; for Total No. of dead insect at 72 Hrs.: 10 insects/treatment, 4 replications; for % Corrected Mortality at 72 Hrs.: corrected for water control
[19] = poisoned food technique, PDA medium, dose 1 ml/gm/lit., after seven days
[20] = read-out: % Corrected Mortality at 48 Hrs.
[21] = read-out: % Mortality at 48 Hrs.
[22] = Table 13, descriptive, no test described
[23] = read-out: % Corrected Mortality at 72 Hrs.
[24] = read-out: % Mortality at 72 Hrs.

CCCCCCCCCCCCCCCC(=O)O [Palmitic acid]
inhibition of growth at 1 mL or g/L (Alternaria alternata [1]; […]): 34.1% | Mean colony Diameter (mm) (Alternaria alternata [1]; [19]): 58.00 mm | % Mortality at 48 Hrs. (Mite [2]): 45.00% | Total No. of dead insect at 48 Hrs. (Mite [2]): 45.00 | % Corrected Mortality at 48 Hrs. (Mite [2]): 42.11% | Plant Height 5th Day (tomato seedlings): 7.14 cm | Stem Girth 5th Day (tomato seedlings): 1.79 mm | Plant Height 10th Day (tomato seedlings): 8.54 cm | Stem Girth 10th Day (tomato seedlings): 2.32 mm | Plant Height % Increase over pre on 10th Day (tomato seedlings): 41.16% | Stem Girth % Increase over pre on 10th Day (tomato seedlings): 76.92% | CCI 5th Day (tomato seedlings): 13.26 | CCI % Increase over pre on 10th Day (tomato seedlings): 33.42% | Root Length (cm) 10th Day (tomato seedlings): 4.95 cm | CCI 10th Day (tomato seedlings): 14.89 | Root Length % Increase over control (tomato seedlings): 48.91% | mortality at 1 mL or g/L (Aphid [3]; [20]): 64.7% | mortality at 1 mL or g/L (Aphid [3]; [21]): 70% | Total No. of dead insect at 72 Hrs. (Spodoptera litura [4]): 2.50 | Acaricidal Activity - Mode of action [5, 22]: Exhibited potent acaricidal | Antifungal Activity - Mode of action [5, 22]: Strongest antifungal | Bactericidal Activity - Mode of action [5, 22]: Destroyed or disintegrated | Nematicidal Activity - Mode of action [5, 22]: Repelling nematodes | Phytotonic Effect [5]: Optimize soil | % Mortality at 72 Hrs. (Spodoptera litura [6]): 27.50% | % Corrected Mortality at 72 Hrs. (Spodoptera litura [6]): 23.68% | % Mortality at 72 Hrs. (Helicoverpa armigera [7]): 40.00% | % Corrected Mortality at 72 Hrs. (Helicoverpa armigera [7]): 40.00% | % Disease reduction over Control (Alternaria alternata [8]): 50.41% | Total No. of dead insect at 48 Hrs. (Mealy Bug [9]): 6.50 | % Mortality at 48 Hrs. (Mealy Bug [9]): 65.00% | % Corrected Mortality at 48 Hrs. (Mealy Bug [9]): 63.16% | % Mortality at 48 Hrs. (Mealy Bug [10]): 55.00% | Total No. of dead insect at 48 Hrs. (Mealy Bug [10]): 55.00 | % Corrected Mortality at 48 Hrs. (Mealy Bug [10]): 50.00% | Total No. of dead insect at 48 Hrs. (Aphid [11]): 6.00 | % Corrected Mortality at 48 Hrs. (Aphid [11]; 48 hrs): 54.29% | % Mortality at 48 Hrs. (Aphid [11]; 48 hrs): 60.00% | % Mortality at 48 Hrs. (Thrips [12]): 40.00% | Total No. of dead insect at 48 Hrs. (Thrips [12]): 40.00 | % Corrected Mortality at 48 Hrs. (Thrips [12]): 33.33% | mortality at 1 mL or g/L (Spodoptera litura [13]; [23]): 21.1% | mortality at 1 mL or g/L (Spodoptera litura [13]; [24]): 25% | Total No. of dead insect at 48 Hrs. (Thrips [14]): 4.25 | Total No. of dead insect at 48 Hrs. (Mite [15]): 4.25 | % Corrected Mortality at 48 Hrs. (Mite [15]): 37.84% | % Mortality at 48 Hrs. (Mite [15]): 42.50% | CCI 5th Day (chili seedlings): 13.04 | Plant Height (cm) 5th Day (chili seedlings): 6.30 cm | CCI % Increase over pre on 10th Day (chili seedlings): 56.37% | Plant Height % Increase over pre on 10th Day (chili seedlings): 68.98% | Root Lenght (cm) 10th Day (chili seedlings): 4.41 cm | Stem Girth % Increase over pre on 10th Day (chili seedlings): 58.78% | CCI 10th Day (chili seedlings): 15.95 | Plant Height (cm) 10th Day (chili seedlings): 7.3 cm | Root Lenght % Increase over control (chili seedlings): 61.00% | Total No. of dead insect at 48 Hrs. (Aphid [16]): 70.00 | mortality at 1 mL or g/L (Thrips [17]; [20]): 34.3% | mortality at 1 mL or g/L (Thrips [17]; [21]): 42.5% | Total No. of dead insect at 72 Hrs. (Helicoverpa armigera [18]): 4.50 | % Mortality at 72 Hrs. (Helicoverpa armigera [18]): 45.00% | % Corrected Mortality at 72 Hrs. (Helicoverpa armigera [18]): 45.00%

CCCCCCCCCC(C)=O [Embodiment 2-undecanone, 2-undecanone]
Mean colony Diameter (mm) (Alternaria alternata [1]; [19]): 52.00 mm | inhibition of growth at 1 mL or g/L (Alternaria alternata [1]; poisoned food technique, PDA medium, dose 1 ml/gm/lit., after seven days, vs untreated control, read-out: % Inhibition of growth): 40.9% | % Mortality at 48 Hrs. (Mite [2]): 27.50% | Total No. of dead insect at 48 Hrs. (Mite [2]): 27.50 | % Corrected Mortality at 48 Hrs. (Mite [2]): 23.68% | Plant Height 5th Day (tomato seedlings): 6.48 cm | Stem Girth 5th Day (tomato seedlings): 1.61 mm | Plant Height 10th Day (tomato seedlings): 7.56 cm | Stem Girth 10th Day (tomato seedlings): 2.40 mm | Plant Height % Increase over pre on 10th Day (tomato seedlings): 40.52% | Stem Girth % Increase over pre on 10th Day (tomato seedlings): 68.29% | CCI 5th Day (tomato seedlings): 13.42 | CCI % Increase over pre on 10th Day (tomato seedlings): 30.95% | Root Length (cm) 10th Day (tomato seedlings): 4.54 cm | CCI 10th Day (tomato seedlings): 15.23 | Root Length % Increase over control (tomato seedlings): 36.48% | mortality at 1 mL or g/L (Aphid [3]; [20]): 61.8% | mortality at 1 mL or g/L (Aphid [3]; [21]): 67.5% | Total No. of dead insect at 72 Hrs. (Spodoptera litura [4]): 4.00 | Antifungal Activity - Mode of action [5, 22]: Antifungal and repellent | Bactericidal Activity - Mode of action [5, 22]: Moderate anti-bacterial | Insecticidal Activities - Mode of action [5, 22]: Insecticidal action, | Phytotonic Effect [5]: Increasing root | % Mortality at 72 Hrs. (Spodoptera litura [6]): 42.50% | % Corrected Mortality at 72 Hrs. (Spodoptera litura [6]): 39.47% | % Mortality at 72 Hrs. (Helicoverpa armigera [7]): 52.50% | % Corrected Mortality at 72 Hrs. (Helicoverpa armigera [7]): 52.50% | % Disease reduction over Control (Alternaria alternata [8]): 58.68% | Total No. of dead insect at 48 Hrs. (Mealy Bug [9]): 5.50 | % Mortality at 48 Hrs. (Mealy Bug [9]): 55.00% | % Corrected Mortality at 48 Hrs. (Mealy Bug [9]): 52.63% | % Mortality at 48 Hrs. (Mealy Bug [10]): 57.50% | Total No. of dead insect at 48 Hrs. (Mealy Bug [10]): 57.50 | % Corrected Mortality at 48 Hrs. (Mealy Bug [10]): 52.78% | Total No. of dead insect at 48 Hrs. (Aphid [11]): 6.75 | % Corrected Mortality at 48 Hrs. (Aphid [11]; 48 hrs): 62.86% | % Mortality at 48 Hrs. (Thrips [12]): 47.50% | Total No. of dead insect at 48 Hrs. (Thrips [12]): 47.50 | % Corrected Mortality at 48 Hrs. (Thrips [12]): 41.67% | mortality at 1 mL or g/L (Spodoptera litura [13]; [23]): 36.8% | mortality at 1 mL or g/L (Spodoptera litura [13]; [24]): 40% | Total No. of dead insect at 48 Hrs. (Thrips [14]): 5.00 | Total No. of dead insect at 48 Hrs. (Mite [15]): 3.00 | % Corrected Mortality at 48 Hrs. (Mite [15]): 24.32% | % Mortality at 48 Hrs. (Mite [15]): 30.00% | CCI 5th Day (chili seedlings): 13.57 | Plant Height (cm) 5th Day (chili seedlings): 5.97 cm | CCI % Increase over pre on 10th Day (chili seedlings): 70.42% | Plant Height % Increase over pre on 10th Day (chili seedlings): 68.11% | Root Lenght (cm) 10th Day (chili seedlings): 4.44 cm | Stem Girth % Increase over pre on 10th Day (chili seedlings): 60.61% | CCI 10th Day (chili seedlings): 15.15 | Plant Height (cm) 10th Day (chili seedlings): 6.59 cm | Root Lenght % Increase over control (chili seedlings): 62.21% | Total No. of dead insect at 48 Hrs. (Aphid [16]): 67.50 | mortality at 1 mL or g/L (Thrips [17]; [20]): 42.9% | mortality at 1 mL or g/L (Thrips [17]; [21]): 50% | Total No. of dead insect at 72 Hrs. (Helicoverpa armigera [18]): 5.50 | % Mortality at 72 Hrs. (Helicoverpa armigera [18]): 55.00% | % Corrected Mortality at 72 Hrs. (Helicoverpa armigera [18]): 55.00%
